Laboratory results published in US9346799B2, “Useful combinations of monobactam antibiotics with beta-lactamase inhibitors” (Basilea Pharmaceutica AG, priority 2005, dated 2016).

Experiments:
Test in all cases: MIC by broth microdilution (NCCLS M7-A5)
[1] = test system: Pseudomonas aeruginosa 1973E
[2] = test system: Pseudomonas aeruginosa MK1184
[3] = test system: Stenotrophomonas malthophilia 1AC736; conditions: Stenotrophomonas maltophilia 1AC736
[4] = test system: Acinetobacter sp. J2; conditions: Acinetobacter baumannii J2
[5] = test system: Enterobacter aerogenes Zayakosky; conditions: Enterobacter aerogenes Zayakosky 5
[6] = test system: Enterobacter cloacae P99
[7] = test system: Serratia marcescens S6
[8] = test system: Acinetobacter baumannii J51; format: cell-based
Experimental: Antimicrobial activity of the compounds and of their combinations was determined against a selection of organisms according to the standard procedures described by the National Committee for Clinical Laboratory Standards (National Committee for Clinical Laboratory. Standards (2000). Methods for Dilution Antimicrobial Susceptibility Tests for Bacteria That Grow Aerobically-Fifth Edition: Approved Standard M7-A5. NCCLS, Wayne, Pa., USA).
In all cases the final concentration of DMSO incubated with the bacteria is less than or equal to 1%. […] Plates were incubated overnight at an appropriate temperature (30° C. or 37° C.) and optical densities assessed by eye. The MIC value is defined as the lowest compound concentration completely inhibiting visible growth of the test organism. When combinations between compounds of formula I with compounds of formula II and are evaluated the compounds of formula I are tested in dilution series as described above while the compounds of formula II and III-XIII were present in all wells at a constant concentration of 4 μg/mL each.

[9] = test system: Klebsiella pneumoniae CF104

CC1(C)[C@H](NC(=O)/C(=N\OCc2cc(=O)c(O)cn2O)c2csc(N)n2)C(=O)N1OS(=O)(=O)O [Compound 26, (3S)-3-{(2Z)-2-(2-amino(1,3-thiazol-4-yl))-3-[(1,5-dihydroxy-4-oxo(2-hydropyridyl))methoxy]-3-azaprop-2-enoylamino}-4,4-dimethyl-2-oxoazetidinyl hydroxysulfonate]
MIC of antibiotic ([1]; + 324 4 mg/L): 4 µg/mL
MIC of antibiotic ([1]; + 324 + sulbactam, 4 mg/L each): 2 µg/mL
MIC of antibiotic ([1]; + BRL427158 4 mg/L): 2 µg/mL
MIC of antibiotic ([1]; + clavulanate 4 mg/L): 2 µg/mL
MIC of antibiotic ([1]; antibiotic alone): 16 µg/mL
MIC of antibiotic ([2]; + 324 4 mg/L): 4 µg/mL
MIC of antibiotic ([2]; + 324 + sulbactam, 4 mg/L each): 2 µg/mL
MIC of antibiotic ([2]; + BRL427158 4 mg/L): 2 µg/mL
MIC of antibiotic ([2]; + clavulanate 4 mg/L): 4 µg/mL
MIC of antibiotic ([2]; antibiotic alone): 2 µg/mL
MIC of antibiotic ([3]; + 324 4 mg/L): 0.25 µg/mL
MIC of antibiotic ([3]; + 324 + sulbactam, 4 mg/L each): 0.25 µg/mL
MIC of antibiotic ([3]; + BRL427158 4 mg/L): 0.125 µg/mL
MIC of antibiotic ([3]; + clavulanate 4 mg/L): ≦0.06 mg/L
MIC of antibiotic ([3]; antibiotic alone): <0.06 µg/mL
MIC of antibiotic ([4]; + 324 4 mg/L): 4 µg/mL
MIC of antibiotic ([4]; + 324 + sulbactam, 4 mg/L each): 2 µg/mL
MIC of antibiotic ([4]; + BRL427158 4 mg/L): 0.5 µg/mL
MIC of antibiotic ([4]; + clavulanate 4 mg/L): >32 µg/mL
MIC of antibiotic ([4]; antibiotic alone): 4 µg/mL
MIC of antibiotic ([5]; + 324 4 mg/L): 4 µg/mL
MIC of antibiotic ([5]; + BRL427158 4 mg/L): 0.5 µg/mL
MIC of antibiotic ([5]; + clavulanic acid 4 mg/L): 8 µg/mL
MIC of antibiotic ([5]; antibiotic alone): 16 µg/mL
MIC of antibiotic ([6]; + 324 4 mg/L): 2 µg/mL
MIC of antibiotic ([6]; + 324 + sulbactam, 4 mg/L each): 2 µg/mL
MIC of antibiotic ([6]; + BRL427158 4 mg/L): 2 µg/mL
MIC of antibiotic ([6]; + clavulanate 4 mg/L): 8 µg/mL
MIC of antibiotic ([6]; antibiotic alone): 16 µg/mL
MIC of antibiotic ([7]; + 324 4 mg/L): ≦0.06 mg/L
MIC of antibiotic ([7]; + 324 + sulbactam, 4 mg/L each): <0.06 µg/mL
MIC of antibiotic ([7]; + BRL427158 4 mg/L): ≦0.06 mg/L
MIC of antibiotic ([7]; + clavulanate 4 mg/L): ≦0.06 mg/L
MIC of antibiotic ([7]; antibiotic alone): <0.06 µg/mL
MIC of antibiotic ([8]; + 324 4 mg/L): 2 µg/mL
MIC of antibiotic ([8]; + BRL427158 4 mg/L): 32 µg/mL
MIC of antibiotic ([8]; + clavulanic acid 4 mg/L): 1 µg/mL
MIC of antibiotic ([8]; antibiotic alone): 4 µg/mL
MIC of antibiotic ([9]; + 324 4 mg/L): 16 µg/mL
MIC of antibiotic ([9]; + 324 + sulbactam, 4 mg/L each): 1 µg/mL
MIC of antibiotic ([9]; + BRL427158 4 mg/L): 0.125 µg/mL
MIC of antibiotic ([9]; + clavulanate 4 mg/L): 0.5 µg/mL
MIC of antibiotic ([9]; antibiotic alone): 32 µg/mL
